Source: paper PMC12294558, “New 1,2,4-Triazole Derivatives with a N-Mannich Base Structure Based on a 4,6-Dimethylpyridine Scaffold as Anticancer Agents: Design, Synthesis, Biological Evaluation, and Molecular Modeling” (International Journal of Molecular Sciences, 2025)
Marks after values point to notes of the source that are not given here.

How the values were obtained:
[1] = MTT viability assay, normal colonic epithelial cells; format: cell-based, human; settings: human, CCD 841 CoTr normal colonic epithelial cells, Non-toxic = no toxicity in tested range 1–500 μM, read-out: CC50 ± SD, CCD 841 CoTr
Method: (§1) The cytotoxic effects of ten newly synthesized N-Mannich bases were assessed on the normal human intestinal epithelium (CCD 841 CoTr) and cancer cell lines: gastric cancer (EPG) and four colorectal cancer lines (Caco-2, LoVo, LoVo/Dx, and HT-29). Cell viability was evaluated using the MTT assay in accordance with Annex C of ISO 10993-5 [33].
(§2) The biological activity of the newly synthesized compounds was assessed in the context of anticancer activity. For this purpose, several gastrointestinal cancer lines were selected: gastric cancer (EPG 257, which belongs to the collection of the Laboratory of Cell Culture and Advanced Therapy at the University of Environmental and Life Sciences in Wrocław), and four colorectal cancer cell lines (LoVo, Caco-2, and HT-29) were obtained from the European Collection of Authenticated Cell Cultures (ECACC) and were delivered by Sigma-Aldrich, a certified distributor for the biobank. Additionally, LoVo cells were used to develop a doxorubicin-resistant subline, referred to as LoVo/Dx. Resistance was induced through gradual adaptation to increasing concentrations of doxorubicin, starting from 0.1 µg/mL and incrementally raised to 0.8 µg/mL. After reaching the maximum concentration, the cells were maintained in a medium containing 0.4 µg/mL doxorubicin for a period of three months to stabilize the resistant phenotype. […] The resulting LoVo/Dx subline, resistant to doxorubicin, was cultured in DMEM/F-12 medium and utilized in assays evaluating the effectiveness of novel compounds against multidrug-resistant cancer cells. […] The non-cancerous cell control was normal colonic epithelial cells (CCD 841 CoTr from American Type Culture Collection, (ATCC, Manassas, VA, USA)). Cell cultures were performed under standard conditions (5% CO2, 95% humidity, and 37 °C). Each cell line was cultured in the recommended medium: (1) HT-29 in McCoy’s 5a, (2) Caco-2 in Minimal Essential Medium (MEM, Biological Industries, Beit Haemek, Israel), (3) CCD 841 CoTr in Dulbecco’s Modified Eagle Medium (DMEM, Biological Industries, Beit Haemek, Israel), (4) LoVo in Dulbecco’s Modified Eagle Medium/F-12 (DMEM/F-12; Biological Industries, Beit Haemek, Israel), (5) LoVo/Dx in DMEM/F-12, and (6) EPG in DMEM. Culture media were supplemented with 10% fetal bovine serum (FBS, Sigma-Aldrich, Darmstadt, Germany) and antibiotics (penicillin and streptomycin; Sigma-Aldrich, Darmstadt, Germany). For assays, trypsinized (TrypLE solution, Thermo Fisher Scientific, Waltham, MA, USA) cells were seeded at appropriate densities of 10,000 cells per well for MTT and determination of apoptotic and necrotic cell numbers; 30,000 cells per well for the rhodamine accumulation assay; and 500,000 cells per well for ELISA tests.
(§3) The cytotoxicity of the compounds and drugs used as controls was assessed using the MTT assay. The assay also included a DMSO control. After seeding and allowing the cells to adhere overnight, they were treated with the tested compounds and drugs for another 24 h. After this time, the supernatant was removed, and a 1 mg/mL MTT solution was added for 2 h in 5% CO2, 95% humidity, at 37 °C. The supernatant was then removed, and isopropanol was added to dissolve the purple crystals over 30 min by shaking. Absorbance was measured at 570 nm in a Multiskan GO microplate reader (Thermo Fisher Scientific; Waltham, MA, USA). All reagents used for the assays were purchased from Sigma-Aldrich, Darmstadt, Germany.
(§4) Biological assays were performed in three independent replicates, each involving four samples. ELISA determinations were repeated three times.

EPG cells = assay: MTT viability assay, gastric cancer cells; format: cell-based, human; settings: for SI, EPG: CC50 CCD 841 CoTr / CC50 EPG; for CC50: Homo sapiens, MTT, 24 h, read-out: CC50 ± SD, EPG
Method: as §1, §2, §3, §4

Caco-2 cells = assay: MTT viability assay, colorectal cancer cells Caco-2; format: cell-based, human; settings: for SI, Caco-2: CC50 CCD 841 CoTr / CC50 Caco-2; for CC50: Homo sapiens, Caco-2, MTT, 24 h, read-out: CC50 ± SD, Caco-2
Method: as §1, §2, §3, §4

LoVo cells = assay: MTT viability assay, colorectal cancer cells LoVo; format: cell-based, human; settings: for SI, LoVo: CC50 CCD 841 CoTr / CC50 LoVo; for CC50: Homo sapiens, LoVo, MTT, 24 h, Non-toxic = no toxicity in tested range 1–500 μM, read-out: CC50 ± SD, LoVo
Method: as §1, §2, §3, §4

LoVo/Dx cells = assay: MTT viability assay, doxorubicin-resistant LoVo/Dx; format: cell-based, human; settings: for SI, LoVo/Dx: CC50 CCD 841 CoTr / CC50 LoVo/Dx; for CC50: Homo sapiens, LoVo/DX, MTT, 24 h, read-out: CC50 ± SD, LoVo/Dx
Method: as §1, §2, §3, §4

HT-29 cells = assay: MTT viability assay, colorectal cancer cells HT-29; format: cell-based, human; settings: for SI, HT-29: CC50 CCD 841 CoTr / CC50 HT-29; for CC50: Homo sapiens, HT-29, MTT, 24 h, read-out: CC50 ± SD, HT-29
Method: as §1, §2, §3, §4

CCD 841 CoTr cells = assay: MTT viability assay, normal colonic epithelial cells; format: cell-based, human; settings: 24 h, Non-toxic = no toxicity in tested range 1–500 μM
Method: as §1, §2, §3, §4

p53 = p53 Human ELISA on HT-29 cell lysates; format: cell-based; settings: HT-29, 1 µM, 24 h
Method: (§5) To check the effect of compound 6 on the level of p-53 and caspase-3 protein, another test was performed on HT-29 cells, taking doxorubicin as the reference drug.
(§6) To assess the level of caspase-3 and p53 protein, HT-29 cell lysates were used after 24 h of incubation with compounds 5 and 6. The supernatant was collected in the prepared and labeled tubes, the cells from the wells were scraped, and the wells were washed with cold PBS, which was also collected. The tubes were then centrifuged, the supernatant was removed, and the cell pellet was lysed in a cell extraction vessel for 30 min on ice, with […] every 10 min. The lysate was transferred to centrifuge tubes and centrifuged at 13,000 rpm for 10 min at 4 °C. The supernatant was transferred to clean tubes in a microcentrifuge.
(§7) The following kits were used: Human Caspase-3 (active) ELISA Kit (KHO1091) and p53 Human ELISA Kit (BMS256), used following the manufacturer’s instructions. ELISA kits were purchased from Thermo Fisher Scientific (Waltham, MA, USA). The absorbance was measured using a Multiskan GO microplate reader (Thermo Fisher Scientific, Waltham, MA, USA) at wavelengths specific to each kit, as recommended by the manufacturer.

Caspase-3 = assay: Human Caspase-3 (active) ELISA on HT-29 cell lysates; format: cell-based; settings: HT-29, 1 µM, 24 h
Method: as §5, §6, §7

HepG2 cells = system: HepG2 cells; set-up: method as in PMID 36181443; settings: cited from earlier work
NUGC cell line = system: NUGC cell line; set-up: method as in PMID 25948330; settings: cited from earlier work
OVCAR-3 cell line = system: OVCAR-3 cell line; set-up: method as in PMID 33482607; settings: cited from earlier work

| SMILES | CC50 at 24 h [1] [µM] | SI, EPG (EPG cells) | CC50 (EPG cells) [µM] | SI, Caco-2 (Caco-2 cells) | CC50 (Caco-2 cells) [µM] | SI, LoVo (LoVo cells) | CC50 (LoVo cells) [µM] | SI, LoVo/Dx (LoVo/Dx cells) | CC50 (LoVo/Dx cells) [µM] | SI, HT-29 (HT-29 cells) | CC50 (HT-29 cells) [µM] | CC50 ± SD, CCD 841 CoTr (CCD 841 CoTr cells) | p53 Conc. ± SD (p53) [U/mL] | p53 Fold Change (p53; versus untreated control) | Caspase-3 Conc. ± SD (Caspase-3) [ng/mL] | Caspase-3 Fold Change (Caspase-3; versus untreated control) | IC50 (HepG2 cells) [µM] | IC50 (NUGC cell line) [µM] | IC50 (OVCAR-3 cell line) [µM] |
| --- | --- | --- | --- | --- | --- | --- | --- | --- | --- | --- | --- | --- | --- | --- | --- | --- | --- | --- | --- |
| Cc1cc(C)c(C(=O)NCc2nn(CN3CCN(c4ccccc4)CC3)c(=S)n2-c2ccccc2)c(S)n1 [Compound 4] | 236 ± 3.5 | 1.68 | 141 ± 2.5 | 1.78 | 133 ± 2.7 | 1.18 | 201 ± 4.6 | 1.17 | 201 ± 4.1 | 1.26 | 187.6 ± 1.6 |  |  |  |  |  |  |  |  |
| O=c1[nH]cc(F)c(=O)[nH]1 [Compound 5-FU, 5-fluorouracil, reference compound] | 61.6 ± 3.7 | 0.55 | 111 ± 3.5 | 0.36 | 170 ± 3.7 | 0.85 | 72.2 ± 1.8 | 0.27 | 226 ± 2.7 | 0.14 | 428.5 ± 2.7 |  |  |  |  |  |  |  |  |
| Cc1cc(C)c(C(=O)NCc2nn(CN3CCN(c4ccc([N+](=O)[O-])cc4)CC3)c(=S)n2-c2ccccc2)c(S)n1 [Compound 8] |  | >>1 ^c | 142 ± 6.3 | >>1 ^c | 84.3 ± 6.8 | >>1 ^c | 178 ± 5.3 | >>1 ^c | 321 ± 6.8 | >>1 ^c | 306 ± 4.9 | Non-toxic ^b |  |  |  |  |  |  |  |
| Cc1cc(C)c(C(=O)NCc2nn(CN3CCN(c4cccc(Cl)c4)CC3)c(=S)n2C)c(S)n1 [Compound 9, 4,6-dimethyl-N-[(4-methyl-5-thioxo-2-{[4-(3-chlorophenyl)piperazinyl]methyl}-4,5-dihydro-1H-1,2,4-triazol-3-yl)methyl]-2-sulfanylpyridine-3-carboxamide] |  | >>1 ^c | 231 ± 7.1 | >>1 ^c | 88.6 ± 7.9 | >>1 ^c | 152 ± 2.7 | >>1 ^c | 260 ± 4.1 | >>1 ^c | 253 ± 5.7 | Non-toxic ^b |  |  |  |  |  |  |  |
| Cc1cc(C)c(C(=O)NCc2nn(CN3CCN(c4ccc([N+](=O)[O-])cc4)CC3)c(=S)n2C)c(S)n1 [Compound 10, 4,6-dimethyl-N-[(4-methyl-5-thioxo-2-{[4-(4-nitrophenyl)piperazinyl]methyl}-4,5-dihydro-1H-1,2,4-triazol-3-yl)methyl]-2-sulfanylpyridine-3-carboxamide] |  | >>1 ^c | 212 ± 3.7 | >>1 ^c | 87.2 ± 5.2 | >>1 ^c | 148 ± 3.7 | >>1 ^c | 210 ± 3.3 | >>1 ^c | 176 ± 6.4 | Non-toxic ^b |  |  |  |  |  |  |  |
| Cc1ccc(N2CCN(Cn3nc(CNC(=O)c4c(C)cc(C)nc4S)n(C)c3=S)CC2)cc1 [Compound 11] | 271 ± 7.1 | 2.28 | 119 ± 3.4 | 4.69 | 57.7 ± 4.8 | 1.98 | 137 ± 5.7 | 1.06 | 255 ± 4.8 | 1.12 | 242 ± 4.1 |  |  |  |  |  |  |  |  |
| Cc1cc(C)c(C(=O)NCc2nn(CN3CCN(c4cccc(Cl)c4)CC3)c(=S)n2C(C)C)c(S)n1 [Compound 12, 4,6-dimethyl-N-[(4-(propan-2-yl)-5-thioxo-2-{[4-(3-chlorophenyl)piperazinyl]-methyl}-4,5-dihydro-1H-1,2,4-triazol-3-yl)methyl]-2-sulfanylpyridine-3-carboxamide] | 342.5 ± 3.4 | 1.30 | 263 ± 5.7 | 1.39 | 247 ± 4.9 | 0.77 | 445.9 ± 2.3 | 0.70 | 487 ± 5.9 | 0.73 | 471.2 ± 3.7 |  |  |  |  |  |  |  |  |
| Cc1cc(C)c(C(=O)NCc2nn(CN3CCN(c4ccc([N+](=O)[O-])cc4)CC3)c(=S)n2C(C)C)c(S)n1 [Compound 13] | 436.1 ± 2.7 | 3.63 | 120 ± 8.5 | 2.98 | 146 ± 3.6 | 2.26 | 193 ± 3.7 | 1.04 | 419 ± 6.2 | 1.11 | 393 ± 7.4 |  |  |  |  |  |  |  |  |
| COc1cccc2c1C(=O)c1c(O)c3c(c(O)c1C2=O)C[C@@](O)(C(=O)CO)C[C@@H]3O[C@H]1C[C@H](N)[C@H](O)[C@H](C)O1 [Doxorubicin, doxorubicin] |  |  |  |  |  |  |  |  |  |  |  |  | 7.62 ± 0.17 | 4.23 | 0.92 ± 0.23 | 30.67 |  |  |  |
| Nn1c(Sc2c(O)c3ccccc3oc2=O)nnc1-c1ccncc1 [II] |  |  |  |  |  |  |  |  |  |  |  |  |  |  |  |  | 1.93 |  |  |
| CN1CCN(Cn2nc(-c3ccncc3)n(-c3ccc(Br)cc3)c2=S)CC1 [VIII] |  |  |  |  |  |  |  |  |  |  |  |  |  |  |  |  |  | 0.021 |  |
| O=C(O)c1cn(C2CC2)c2cc(N3CCN(Cc4c(O)ccc5ccccc45)CC3)c(F)cc2c1=O [V] |  |  |  |  |  |  |  |  |  |  |  |  |  |  |  |  |  |  | 0.97 |
